Laboratory results published in patent EP4205753A1, “ANTIVIRAL PLANT EXTRACT COMPOSITION AND METHOD FOR PREPARING SUCH COMPOSITION” (priority 2021, dated 2023).
Where two headings read alike, the source gives them in different places.

What was measured:
SARS-CoV-2 [1] = test: microbe, parasite or virus in culture; settings: Severe acute respiratory syndrome coronavirus 2, Vero C1008, 55 h, read-out: viability in comparison with non-infected cells
SARS-CoV-2 [2] = system: SARS-CoV-2

CCC(CC)COC(=O)[C@H](C)N[P@](=O)(OC[C@H]1O[C@@](C#N)(c2ccc3c(N)ncnn23)[C@H](O)[C@@H]1O)Oc1ccccc1 [Remdesivir]
viability at 25 µM (SARS-CoV-2 [1]): 97%

C=C[C@H](OC(C)=O)c1ccc(OC(C)=O)cc1 [AAC, acetoxychavicol acetate]
cell viability in comparison with non-infected cells (SARS-CoV-2 [2]; 1 µM): 59%
cell viability in comparison with non-infected cells (SARS-CoV-2 [2]; 10 µM): 66%
